# Experiments:
# Format in all cases: in vivo
# [1] = system: STEME: common chickweed (Stellaria media); assay: Post-emergent Test III, herbicidal activity in wheat and barley; details: for pest or weed control at 35 g/ha / pest or weed control at 70 g/ha / pest or weed control at 140 g/ha: Stellaria media, post-emergence, 504 h, read-out: Visual Growth Reduction (%) 21 Days After Application STEME; for pest or weed control at 35 g/ha: 35 g ai/ha; for pest or weed control at 70 g/ha: 70 g ai/ha; for pest or weed control at 140 g/ha: 140 g ai/ha; for GR50 STEME / GR80 STEME: probit analysis, 21 days after application; for GR50 STEME: dose for growth reduction of 50 percent; for GR80 STEME: dose for growth reduction of 80 percent
# Outline: (§1)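 Plants at the second to third true-leaf stage, grown in a greenhouse at about 18/17 °C with a 14 h photoperiod, were sprayed post-emergence at 187 L/ha with the high rate and ½× to 1/16× serial dilutions in an acetone/DMSO/crop-oil/surfactant carrier. Injury was rated visually at 21 d on a 0–100% scale, and GR20–GR90 were derived by probit analysis.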
# [2] = system: PHAMI: lesser canary grass (Phalaris minor); assay: as above; details: for pest or weed control at 35 g/ha / pest or weed control at 70 g/ha / pest or weed control at 140 g/ha: Phalaris minor, post-emergence, 504 h, read-out: Visual Growth Reduction (%) 21 Days After Application PHAMI; for pest or weed control at 35 g/ha: 35 g ai/ha; for pest or weed control at 70 g/ha: 70 g ai/ha; for pest or weed control at 140 g/ha: 140 g ai/ha; for GR50 PHAMI / GR80 PHAMI: probit analysis, 21 days after application; for GR50 PHAMI: dose for growth reduction of 50 percent; for GR80 PHAMI: dose for growth reduction of 80 percent
# Outline: as §1
# [3] = system: AVEFA: wild oats (Avena fatua); assay: Pre-emergent Test I herbicidal activity; details: pre-emergence, 336 h, read-out: Visual Growth Reduction (%) 14 Days After Application, AVEFA; for pest or weed control at 4000 g/ha: 4 kg ai/ha; for pest or weed control at 3960 g/ha: 3.96 kg ai/ha; for pest or weed control at 4040 g/ha: 4.04 kg ai/ha
# Outline: (§2)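 Read-out: visual herbicidal effect 0-100 relative to controls, 14 days after treatment, 100 meaning plant death or no emergence. Spray solution contained crop oil concentrate and 0.02% w/v Triton X-155; lower rates by serial dilution. Applied to soil after seeding, followed by water incorporation.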
# [4] = system: ECHCG: barnyardgrass (Echinochloa crus-galli); assay: Pre-emergent Test I herbicidal activity; details: pre-emergence, 336 h, read-out: Visual Growth Reduction (%) 14 Days After Application, ECHCG; for pest or weed control at 4000 g/ha: 4 kg ai/ha; for pest or weed control at 3960 g/ha: 3.96 kg ai/ha; for pest or weed control at 4040 g/ha: 4.04 kg ai/ha
# Outline: as §2
# [5] = system: HELAN: sunflower (Helianthus annuus); assay: Pre-emergent Test I herbicidal activity; details: pre-emergence, 336 h, read-out: Visual Growth Reduction (%) 14 Days After Application, HELAN; for pest or weed control at 4000 g/ha: 4 kg ai/ha; for pest or weed control at 3960 g/ha: 3.96 kg ai/ha; for pest or weed control at 4040 g/ha: 4.04 kg ai/ha
# Outline: as §2
SMILES,pest or weed control at 35 g/ha [1] [%],pest or weed control at 70 g/ha [1] [%],pest or weed control at 140 g/ha [1] [%],GR50 STEME [1] [g ai/ha],GR80 STEME [1] [g ai/ha],pest or weed control at 35 g/ha [2] [%],pest or weed control at 70 g/ha [2] [%],pest or weed control at 140 g/ha [2] [%],GR50 PHAMI [2] [g ai/ha],GR80 PHAMI [2] [g ai/ha],pest or weed control at 4000 g/ha [3] [%],pest or weed control at 4000 g/ha [4] [%],pest or weed control at 4000 g/ha [5] [%],other results
Nc1c(F)c(-c2ccc(Br)cc2)nc(C(=O)O)c1Cl [Compound 20],75 to 84,95 to 100,95 to 100,8,25,85 to 94,85 to 94,85 to 94,5,25,95 to 100,95 to 100,95 to 100,–
N#Cc1ccc(-c2nc(C(=O)O)c(Cl)c(N)c2F)cc1 [Compound 39],0 to 29,30 to 44,45 to 59,111,>140,0 to 29,30 to 44,45 to 59,118,>140,–,–,–,pest or weed control at 2000 g/ha ([3]; 2 kg ai/ha): 85 to 94%; pest or weed control at 2000 g/ha ([4]; 2 kg ai/ha): 95 to 100%; pest or weed control at 2000 g/ha ([5]; 2 kg ai/ha): 95 to 100%
"Nc1c(F)c(-c2ccc(I)cc2)nc(C(=O)O)c1Cl [Compound 45, 4-amino-3-chloro-5-fluoro-6-(4-iodophenyl)picolinic acid]",30 to 44,30 to 44,30 to 44,75,>140,75 to 84,85 to 94,95 to 100,15,32,–,–,–,pest or weed control at 3960 g/ha [3]: 95 to 100%; pest or weed control at 3960 g/ha [4]: 95 to 100%; pest or weed control at 3960 g/ha [5]: 95 to 100%
COC(=O)c1nc(-c2ccc(OC(F)F)cc2)c(F)c(N)c1Cl [Compound 85],0 to 29,0 to 29,0 to 29,57,123,0 to 29,0 to 29,0 to 29,>140,>140,–,–,–,pest or weed control at 3760 g/ha ([3]; 3.76 kg ai/ha): 75 to 84%; pest or weed control at 3760 g/ha ([4]; 3.76 kg ai/ha): 95 to 100%; pest or weed control at 3760 g/ha ([5]; 3.76 kg ai/ha): 95 to 100%
"COC(=O)c1nc(-c2ccc(Br)c(F)c2F)cc(N)c1Cl [Compound 114, methyl 4-amino-6-(4-bromo-2,3-difluorophenyl)-3-chloropicolinate]",0 to 29,0 to 29,0 to 29,>140,>140,0 to 29,0 to 29,0 to 29,>140,>140,–,–,–,pest or weed control at 3920 g/ha ([3]; 3.92 kg ai/ha): 95 to 100%; pest or weed control at 3920 g/ha ([4]; 3.92 kg ai/ha): 75 to 84%; pest or weed control at 3920 g/ha ([5]; 3.92 kg ai/ha): 95 to 100%
"COC(=O)c1nc(-c2ccc(I)cc2)c(F)c(N)c1Cl [Compound 118, Methyl 4-amino-6-(4-iodophenyl)-3-chloro-5-fluoropicolinate]",30 to 44,30 to 44,30 to 44,1,1,0 to 29,60 to 74,75 to 84,68,126,–,–,–,pest or weed control at 2320 g/ha ([3]; 2.32 kg ai/ha): 95 to 100%; pest or weed control at 2320 g/ha ([4]; 2.32 kg ai/ha): 95 to 100%; pest or weed control at 2320 g/ha ([5]; 2.32 kg ai/ha): 95 to 100%
"COC(=O)c1nc(-c2ccc(Br)cc2)c(F)c(N)c1Cl [Compound 138, Methyl 4-amino-6-(4-bromophenyl)-3-chloro-5-fluoropicolinate]",30 to 44,30 to 44,45 to 59,125,>140,45 to 59,75 to 84,85 to 94,31,78,95 to 100,95 to 100,95 to 100,–
COC(=O)c1nc(-c2ccc(C#N)cc2)c(F)c(N)c1Cl [Compound 142],0 to 29,0 to 29,0 to 29,>140,>140,0 to 29,0 to 29,0 to 29,>140,>140,–,–,–,pest or weed control at 3840 g/ha ([3]; 3.84 kg ai/ha): 95 to 100%; pest or weed control at 3840 g/ha ([4]; 3.84 kg ai/ha): 30 to 44%; pest or weed control at 3840 g/ha ([5]; 3.84 kg ai/ha): 95 to 100%
Nc1c(F)c(-c2ccc(OC(F)F)cc2)nc(C(=O)O)c1Cl [Compound 143],0 to 29,0 to 29,0 to 29,>140,>140,0 to 29,30 to 44,60 to 74,112,>140,60 to 74,85 to 94,95 to 100,–
N#Cc1ccc(-c2nc(C(=O)O)c(Cl)c(N)c2F)cc1F [Compound 156],–,–,–,–,–,–,–,–,–,–,–,–,–,pest or weed control at 4040 g/ha [3]: 75 to 84%; pest or weed control at 4040 g/ha [4]: 95 to 100%; pest or weed control at 4040 g/ha [5]: 95 to 100%
COC(=O)c1nc(-c2ccc(C(F)F)cc2)c(F)c(N)c1Cl [Compound 209],–,–,–,–,–,–,–,–,–,–,95 to 100,95 to 100,95 to 100,–
C=Cc1c(C(=O)O)nc(-c2ccc(Cl)c(F)c2)c(F)c1N [Compound 214],–,–,–,–,–,–,–,–,–,–,–,–,–,pest or weed control at 4040 g/ha [3]: 85 to 94%; pest or weed control at 4040 g/ha [4]: 95 to 100%; pest or weed control at 4040 g/ha [5]: 95 to 100%
"C=Cc1c(C(=O)OC)nc(-c2ccc(Cl)c(F)c2)c(F)c1N [Compound 215, methyl 4-amino-6-(4-chloro-3-fluorophenyl)-5-fluoro-3-vinylpicolinate]",–,–,–,–,–,–,–,–,–,–,–,–,–,pest or weed control at 3960 g/ha [3]: 85 to 94%; pest or weed control at 3960 g/ha [4]: 95 to 100%; pest or weed control at 3960 g/ha [5]: 95 to 100%

# — US9113629B2, “4-amino-6-(4-substituted-phenyl)-picolinates and 6-amino-2-(4-substituted-phenyl)-pyrimidine-4-carboxylates and their use as herbicides” (DOW AGROSCIENCES LLC, priority 2013, dated 2015)
